Reference: patent publication US12290511B2, “Pharmaceutical preparation containing pyridyl aminoacetic acid compound” (Santen Pharmaceutical Co., Ltd., priority 2017, dated 2025)

Tested on: patients with primary open angle glaucoma or ocular hypertension resistant to treatment with latanoprost ophthalmic solution
Experiment: Clinical test: 0.002% (w/v) omidenepag isopropyl eye drop A in patients resistant to latanoprost ophthalmic solution
Type: in vivo, humans
Description: Examination was conducted on the efficacy of omidenepag isopropyl on patients with inadequate efficacies of other glaucoma or ocular hypertension therapeutic agents.
Omidenepag isopropyl, polyoxyl 35 castor oil, glycerin, citric acid, sodium citrate, sodium edetate, and benzalkonium chloride were dissolved into purified water to adjust the pH. Thereafter, purified water was added to adjust the total volume, thereby preparing a 0.002% (w/v) omidenepag isopropyl eye drop A.
Patients with primary open angle glaucoma or ocular hypertension were subjected to a washout period of 1 to 4 weeks, and then received a binocular instillation of 0.005% latanoprost ophthalmic solution in an amount of 1 drop once a day for 8 weeks as an induction phase (week −8 to baseline). The patients with primary open angle glaucoma (21 humans) or ocular hypertension (5 humans) resistant to treatment with latanoprost ophthalmic solution, whose rate of decrease in intraocular pressure from the start of instillation was 15% or less at the end of the induction phase, entered the treatment phase (baseline to week 4), and received a binocular instillation of the above-described 0.002% (w/v) omidenepag isopropyl eye drop A in an amount of 1 drop (about 0.03 mL) once a day for 4 weeks every day.

CC(C)OC(=O)CNc1cccc(CN(Cc2ccc(-n3cccn3)cc2)S(=O)(=O)c2cccnc2)n1 [omidenepag isopropyl, isopropyl (6-{[4-(pyrazol-1-yl)benzyl](pyridin-3-ylsulfonyl)aminomethyl}pyridin-2-ylamino)acetate]
intraocular pressure lowering compared with latanoprost instillation: lowers intraocular pressure to a greater extent than latanoprost instillation
